The results in this text go back to US8022209B2, “Substituted nitrogen-containing heteroaryl derivatives useful as modulators of the histamine H4 receptor” (Janssen Pharmaceutica NV, priority 2007, dated 2011).

In this assay the target is T1, human histamine H4 receptor (Homo sapiens, UniProt Q9H3N8).
T1 construct: expressed in transfected cells; host or cells: SK-N-MC cells or COS7 cells, transiently transfected with pH4R; cell membranes
The assay can be described thus: Binding Assay on Recombinant Human Histamine H4 Receptor. The note with it: competition binding vs 3H-histamine (5 nM, KD 5 nM), membranes of SK-N-MC or COS7 cells transfected with human H4R; Cheng-Prusoff; average of results obtained. How it is done: Binding Assay on Recombinant Human Histamine H4 Receptor
SK-N-MC cells or COS7 cells were transiently transfected with pH4R and grown in 150 cm^2 tissue culture dishes. Cells were washed with saline solution, scraped with a cell scraper and collected by centrifugation (1000 rpm, 5 min). Cell membranes were prepared by homogenization of the cell pellet in 20 mM Tris-HCl with a polytron tissue homogenizer for 10 sec at high speed. Homogenate was centrifuged at 1000 rpm for 5 min at 4° C. The supernatant was then collected and centrifuged at 20,000×g for 25 min at 4° C. The final pellet was resuspended in 50 mM Tris-HCl. Cell membranes were incubated with ^3H-histamine (5-70 nM) in the presence or absence of excess histamine (10,000 nM). Incubation occurred at room temperature for 45 min. Membranes were harvested by rapid filtration over Whatman GF/C filters and washed 4 times with ice-cold 50 mM Tris HCl. Filters were then dried, mixed with scintillant and counted for radioactivity. SK-N-MC or COS7 cells expressing human histamine H4 receptor were used to measure the affinity of binding of other compounds and their ability to displace ^3H-ligand binding by incubating the above-described reaction in the presence of various concentrations of inhibitor or compound to be tested. For competition binding studies using ^3H-histamine, Ki values were calculated, based on an experimentally determined KD value of 5 nM and a ligand concentration of 5 nM, according to Y. C.

T1 sequence (Q9H3N8 whole entry): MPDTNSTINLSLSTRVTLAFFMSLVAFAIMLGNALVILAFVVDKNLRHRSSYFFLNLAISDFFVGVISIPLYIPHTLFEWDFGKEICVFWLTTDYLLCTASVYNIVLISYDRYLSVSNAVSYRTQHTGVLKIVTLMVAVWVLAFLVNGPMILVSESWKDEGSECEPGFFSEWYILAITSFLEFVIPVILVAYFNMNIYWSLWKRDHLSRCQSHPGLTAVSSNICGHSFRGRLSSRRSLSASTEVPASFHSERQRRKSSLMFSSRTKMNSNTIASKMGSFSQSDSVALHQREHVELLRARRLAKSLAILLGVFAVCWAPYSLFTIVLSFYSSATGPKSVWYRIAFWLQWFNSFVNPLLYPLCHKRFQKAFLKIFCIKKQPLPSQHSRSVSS

As to `CN1CCN(c2ncnc(-c3ccsc3)n2)CC1` [compound 1, 2-(4-Methyl-piperazin-1-yl)-4-thiophen-3-yl-[1,3,5]triazine], the Ki was found to be 44 nM.
With `CN1CCN(c2ncnc(-c3cccs3)n2)CC1` [compound 2, 2-(4-Methyl-piperazin-1-yl)-4-thiophen-2-yl-[1,3,5]triazine], the Ki worked out at 76 nM.
The same measure for `Cc1ccc(-c2ncnc(N3CCN(C)CC3)n2)cc1F` [compound 3, 2-(3-Fluoro-4-methyl-phenyl)-4-(4-methyl-piperazin-1-yl)-[1,3,5]triazine]: 22 nM.
In the case of `Cc1ccc(-c2ncnc(N3CCN(C)CC3)n2)cc1` [compound 4, 2-(4-Methyl-piperazin-1-yl)-4-p-tolyl-[1,3,5]triazine] it was 75 nM.
In the case of `CN1CCN(c2ncnc(-c3ccc(F)c(F)c3)n2)CC1` [compound 5, 2-(3,4-Difluoro-phenyl)-4-(4-methyl-piperazin-1-yl)-[1,3,5]triazine], the Ki was found to be 33 nM.
In the case of `CN1CCN(c2ncnc(-c3ccoc3)n2)CC1` [compound 6, 2-Furan-3-yl-4-(4-methyl-piperazin-1-yl)-[1,3,5]triazine], the Ki is 115 nM.
The same measure for `CN1CCN(c2ncnc(-c3cccc(F)c3)n2)CC1` [compound 7, 2-(3-Fluoro-phenyl)-4-(4-methyl-piperazin-1-yl)-[1,3,5]triazine]: 87 nM; for `CN1CCN(c2ncnc(-c3cccc(C(F)(F)F)c3)n2)CC1` [compound 8, 2-(4-Methyl-piperazin-1-yl)-4-(3-trifluoromethyl-phenyl)-[1,3,5]triazine]: 73 nM; for `CN1CCN(c2ncnc(-c3cc(Br)cs3)n2)CC1` [compound 9]: 22 nM.
The same measure for `CN1CCN(c2ncnc(-c3ccc(Br)cc3)n2)CC1` [compound 10, 2-(4-Bromo-phenyl)-4-(4-methyl-piperazin-1-yl)-[1,3,5]triazine]: 36 nM; for `CN1CCN(c2ncnc(-c3cc(F)c(F)c(F)c3)n2)CC1` [compound 11, 2-(4-Methyl-piperazin-1-yl)-4-(3,4,5-trifluoro-phenyl)-[1,3,5]triazine]: 7 nM.
The same measure for `CN1CCN(c2ncnc(-c3ccc(F)cc3)n2)CC1` [compound 12, 2-(4-Fluoro-phenyl)-4-(4-methyl-piperazin-1-yl)-[1,3,5]triazine]: 35 nM; for `CN1CCN(c2ncnc(-c3ccc(Cl)cc3)n2)CC1` [compound 13, 2-(4-Chloro-phenyl)-4-(4-methyl-piperazin-1-yl)-[1,3,5]triazine]: 10 nM; for `CN1CCN(c2ncnc(-c3ccc(Cl)c(Cl)c3)n2)CC1` [compound 14, 2-(3,4-Dichloro-phenyl)-4-(4-methyl-piperazin-1-yl)-[1,3,5]triazine]: 30 nM.
Take `CN1CCN(c2ncnc(-c3sccc3Br)n2)CC1` [compound 15, 2-(3-Bromo-thiophen-2-yl)-4-(4-methyl-piperazin-1-yl)-[1,3,5]triazine]: the Ki was 2 nM.
Consider `CN1CCN(c2ncnc(-c3ccc(Cl)nc3)n2)CC1` [compound 16, 2-(6-Chloro-pyridin-3-yl)-4-(4-methyl-piperazin-1-yl)-[1,3,5]triazine], for which the Ki turned out to be 50 nM.
The same measure for `CN1CCN(c2ncnc(-c3sccc3Cl)n2)CC1` [compound 17, 2-(3-Chloro-thiophen-2-yl)-4-(4-methyl-piperazin-1-yl)-[1,3,5]triazine]: 8 nM; for `CN1CCN(c2ncnc(-c3ccc(Br)s3)n2)CC1` [compound 18, 2-(5-Bromo-thiophen-2-yl)-4-(4-methyl-piperazin-1-yl)-[1,3,5]triazine]: 37 nM; for `CN1CCN(c2ncnc(-c3cccnc3)n2)CC1` [compound 19, 2-(4-Methyl-piperazin-1-yl)-4-pyridin-3-yl-[1,3,5]triazine]: 172 nM.
For the compound `CN1CCN(c2ncnc(-c3ccncc3)n2)CC1` [compound 20, 2-(4-Methyl-piperazin-1-yl)-4-pyridin-4-yl-[1,3,5]triazine], the Ki came to 950 nM.
In the case of `CN1CCN(c2ncnc(-c3cc4ccccc4s3)n2)CC1` [compound 21, 2-Benzo[b]thiophen-2-yl-4-(4-methyl-piperazin-1-yl)-[1,3,5]triazine] it was 2330 nM; in that of `Cc1cc(-c2ncnc(N3CCN(C)CC3)n2)c(C(F)(F)F)o1` [compound 22, 2-(4-Methyl-piperazin-1-yl)-4-(5-methyl-2-trifluoromethyl-furan-3-yl)-[1,3,5]triazine], 757 nM; in that of `Cc1nc(-c2sccc2Br)nc(N2CCN(C)CC2)n1` [compound 23, 2-(3-Bromo-thiophen-2-yl)-4-methyl-6-(4-methyl-piperazin-1-yl)-[1,3,5]triazine], 31 nM.
The same measure for `CN1CCCN(c2ncnc(-c3sccc3Br)n2)CC1` [compound 24, 1-[4-(3-Bromo-thiophen-2-yl)-[1,3,5]triazin-2-yl]-4-methyl-[1,4]diazepane]: 267 nM.
In the case of `CN1CCN(c2ncnc(-c3ccc(Cl)s3)n2)CC1` [compound 25, 2-(5-Chloro-thiophen-2-yl)-4-(4-methyl-piperazin-1-yl)-[1,3,5]triazine] it was 66 nM; in that of `CN1CCN(c2ccnc(-c3ccsc3)c2)CC1` [compound 26], 37 nM.
Consider `CN1CCN(c2ccnc(-c3ccco3)c2)CC1` [compound 27], for which the Ki amounted to 87 nM.
With `CN1CCN(c2ccnc(-c3ccoc3)c2)CC1` [compound 28], the Ki stood at 25 nM.
In the case of `Cc1cscc1-c1cc(N2CCN(C)CC2)ccn1` [compound 29] it was 64 nM.
Take `CN1CCN(c2ccnc(-c3ccc(F)c(Cl)c3)c2)CC1` [compound 30]: the Ki was 138 nM.
The same measure for `Cc1ccc(-c2cc(N3CCN(C)CC3)ccn2)cc1F` [compound 31]: 75 nM; for `Cc1ccc(-c2cc(N3CCN(C)CC3)ccn2)cc1` [compound 32]: 129 nM; for `CN1CCN(c2ccnc(-c3cccc(O)c3)c2)CC1` [compound 33]: 577 nM.
Take `CN1CCN(c2ccnc(-c3ccc(F)c(F)c3)c2)CC1` [compound 34]: the Ki was 90 nM.
The same measure for `CN1CCN(c2ccnc(-c3cccc(Cl)c3Cl)c2)CC1` [compound 35]: 130 nM; for `Cc1ccc(-c2cc(N3CCN(C)CC3)ccn2)cc1Cl` [compound 37]: 65 nM; for `CN1CCN(c2ccnc(-c3cccc(-c4ccccc4)c3)c2)CC1` [compound 38]: 52 nM.
In the case of `CN1CCCN(c2ccnc(-c3ccsc3)c2)CC1` [compound 39] it was 433 nM; in that of `CN1CCC(N(C)c2ccnc(-c3ccsc3)c2)C1` (centres unmarked) [compound 40], 867 nM; in that of `CN(C)CCN(C)c1ccnc(-c2ccsc2)c1` [compound 41], 2600 nM.
The same measure for `CN(C)C1CCN(c2ccnc(-c3ccsc3)c2)C1` (centres unmarked) [compound 42]: 767 nM; for `CN1CCN(c2ccnc(-c3cccc(-c4ccc(C(=O)N5CCOCC5)cc4)c3)c2)CC1` [compound 63]: at least 10000 nM; for `CNC1CCN(c2ccnc(-c3ccsc3)c2)C1` (centres unmarked) [compound 66]: 216 nM.
Consider `CN1CCCN(c2cc(-c3cccs3)ncn2)CC1` [compound 68], for which the Ki came out at 397 nM.
As for `CN1CCN(c2ncnc(-c3cccc(-c4ccccc4)c3)n2)CC1` [compound 108, 2-Biphenyl-3-yl-4-(4-methyl-piperazin-1-yl)-[1,3,5]triazine], the Ki was 1930 nM.
`CN1CCN(c2ncnc(-c3cccc(C#N)c3)n2)CC1` [compound 111, 3-[4-(4-Methyl-piperazin-1-yl)-[1,3,5]triazin-2-yl]-benzonitrile]: the Ki amounted to 2010 nM.
The same measure for `CN1CCN(c2ncnc(-c3cccc4ccccc34)n2)CC1` [compound 112, 2-(4-Methyl-piperazin-1-yl)-4-naphthalen-1-yl-[1,3,5]triazine]: 1510 nM; for `Cc1cc(-c2ncnc(N3CCN(C)CC3)n2)ccc1F` [compound 115, 2-(4-Fluoro-3-methyl-phenyl)-4-(4-methyl-piperazin-1-yl)-[1,3,5]triazine]: 111 nM.
In the case of `CN1CCN(c2ncnc(-c3ccc(-c4ccccc4)cc3)n2)CC1` [compound 116, 2-Biphenyl-4-yl-4-(4-methyl-piperazin-1-yl)-[1,3,5]triazine] it was over 10000 nM; in that of `CN1CCN(c2ncnc(-c3ccc4ccccc4c3)n2)CC1` [compound 117, 2-(4-Methyl-piperazin-1-yl)-4-naphthalen-2-yl-[1,3,5]triazine], over 10000 nM.
The same measure for `CN1CCN(c2ncnc(-c3ccccc3)n2)CC1` [compound 118, 2-(4-Methyl-piperazin-1-yl)-4-phenyl-[1,3,5]triazine]: 128 nM; for `CN1CCN(c2ncnc(-c3ccc([N+](=O)[O-])cc3)n2)CC1` [compound 121, 2-(4-Methyl-piperazin-1-yl)-4-(4-nitro-phenyl)-[1,3,5]triazine]: 107 nM.
On to `CN1CCN(c2ncnc(-c3ccc(F)cc3F)n2)CC1` [compound 122, 2-(2,4-Difluoro-phenyl)-4-(4-methyl-piperazin-1-yl)-[1,3,5]triazine], for which the Ki was 94 nM.

What is called Ki is the dissociation constant of the complex between target and ligand, obtained from inhibition or displacement.
